How the values were obtained:
Test in all cases: cell viability of stable HEK293T lines
Format in all cases: cell-based
293T-CBS WT cells = tested on: 293T-CBS WT cells
Experimental: (§1) Fig. 4 CH004 arrests the cell cycle at the S phase. a CH004 reduces the cell viability of HEK293T and HepG2 cells. HEK293T or HepG2 cells were treated with indicated concentrations of CH004 for 24 h before the cell number was analyzed using the CellTiter96® Aqueous One Solution Cell Proliferation Assay (Promega, Materials and Methods). The means at each concentration of one representative experiment are shown as percentages of DMSO (control, 100%). Means ± SDs (n = 3). b Overexpression of hCBS or knock-down of hCBS counteracts the growth inhibition exerted by CH004 in HEK293T cells. Indicated HEK293T stable cell lines were treated with the CH004 or DMSO for 24 h. Then, the cell viability was quantified with the CellTiter 96® Aqueous One Solution Cell Proliferation Assay under the standard protocol (Promega). The means at each concentration are shown as percentages of their respective DMSO controls (100%). Means ± SDs (n = 3). The efficacy for CBS overexpression and knock-down in HEK293T cells was determined by Western blotting using an anti-CBS antibody (3E1, 1:2000; Abnova). c CH004 induces cell death in HEK293T and HepG2 cells. […] The means of percentages of dead cells (DMSO, 100%) from three independent samples are shown in d. Means ± SDs (n = 3). e, f Pharmacological inhibition or genetic knock-down of hCBS in HEK293T cells arrests the cell cycle at S phase. HEK293T cells were incubated with indicated compounds for 12 h, and the DNA content was quantified with propidium iodide to analyze the cell cycle distribution by flow cytometry (e). The cell cycle distributions for HEK293T-shNT and HEK293T-shCBS cells were accordingly analyzed and are shown in f. One representative diagram is shown for each condition. The mean percentages of various cell phases from three independent samples are shown in the respective right panels. Means ± SDs (n = 3). Statistical analyses were performed by two-way ANOVA with Bonferroni post-tests. *p < 0.05; **p < 0.01; ***p < 0.001.
(§2) HEK293T cells stably expressing hCBS-FL WT or Q222A mutant were generated using lentiviral particles carrying pCDH-hCBS or pCDH empty vector (EV) and pPACK Packaging Plasmid Mix (SBI, Mountain View, CA, USA) according to the manufacturer’s instructions. Similarly, CBS-knock-down HEK293T cells or control cells were obtained using the miRzip lentiviral vector according to the manufacturer’s protocol (SBI, MZIPxxxPA-1). The infected cells were then incubated with 2.5 μg/mL puromycin for two weeks until stable clones were obtained. The target sequence of shRNA-CBS was 5′-GTAGTTCCGCACTGAGTCG-3′, which has been used previously. The scramble control was 5′-TCCGCAGGTATGCACGCGT-3′.
(§3) Figure S12. CH004 inhibits the proliferation of cells via specifically targeting hCBS. (A-B) Dose-dependent curves of CH004 on the cell viability of CBS-stably-expressed HEK293T (A) or CBS-knockdown cells (B). Percentages of cell viability of CH004 obtained in Figure 4b were fitted to the non-linear equation using GraphPad Prism 5 to get the IC50 values of CH004 in respective cell lines (●, 293T-CBS WT cells; ○, 293T-EV; ▲, 293T-shCBS; △, 293T-shNT). Means ± SDs (n=3). […] HEK293T cells stably expressing of the lentiviral shRNA targeting CBS (shCBS) or control shRNA (shNT) were seeded at the density of ~ 3,000 cells per well in 96-well plates and the cell images in the bright field were acquired at indicated times by Image Xpress Micro® XLS (Molecular Devices, Sunnyvale, CA) under 10 × objective lens. Representative images of two independent experiments (n = 6 for each experiment) are shown in C. The cell numbers of images under 4 × objective lens of one representative experiment were calculated by Image Xpress Software and the data is shown in D. Means ± SDs (n=6). […] HepG2 cells were seeded in a 96-well plate at a density of 20000 cells per well and cultured for 24 h before treatment with indicated concentrations of CH004 for another 24 h. […]

293T-EV cells = settings: Homo sapiens, HEK-293T, 24 h
Experimental: as §1, §2, §3

293T-shCBS cells = tested on: 293T-shCBS cells
Experimental: as §1, §2, §3

293T-shNT cells = settings: Homo sapiens, HEK-293T, 24 h
Experimental: as §1, §2, §3

Cn1nc(Cc2ccccc2)nc2c(=O)n(C)c(=O)nc1-2 [CH004, 3-benzyl-1,6-dimethylpyrimido[5,4-e][1,2,4]triazine-5,7(1H,6H)-dione]
counteraction of inhibitory effect by overexpression of CBS (293T-CBS WT cells; 293T-CBS WT vs 293T-EV): 3 fold | IC50 (293T-CBS WT cells; Homo sapiens, HEK-293T, 24 h): 35.5 ± 1.2 µM | IC50 (293T-EV cells): 9.6 ± 1.6 µM | increase of IC50 by CBS knock-down (293T-shCBS cells; 293T-shCBS vs 293T-shNT): 15 fold | IC50 (293T-shCBS cells; Homo sapiens, HEK-293T, 24 h): 43.2 ± 8.3 µM | IC50 (293T-shNT cells): 2.6 ± 0.5 µM
